Consider one compound from paper PMC8508710, “Biochemical Characterization of 13-Lipoxygenases of Arabidopsis thaliana” (International Journal of Molecular Sciences, 2021).

This assay relates to pea root LOX. Briefly: Ex vivo pea root extract LOX activity, oxygen electrode. Conditions: 36 µg pea root extract pretreated with 1 mM 12-OPDA. Format: biochemical, Pisum sativum. The protocol: To evaluate 12-OPDA as a LOX inhibitor under native conditions, we employed pea roots as a plant LOX source. The reliability was assessed with the criterion that an increase in A234nm and, ideally, oxygen consumption occurred via the injection of plant tissue extract (0.5–2 µg/µL protein in 50 mM Tris-HCl or K-Pi, pH 6.6–8.0) in LeA (tested at 4–100 µM). […] Pea seeds (Pisum sativum “Kleine Rheinländerin”) were placed in darkness for 4 days on moist paper. The emerged roots were cut, frozen in liquid N2, and stored at −80 °C. Frozen tissue (~50 mg/mL) was pulverized in a pre-chilled mortar and immediately ground with 50 mM Tris-HCl, pH 7.2. […]
The immunological detection of 13-LOX was performed, based on. […] After 1 h blocking with blocking solution (1% (w/v) non-fat dry milk in TBST (150 mM NaCl, 50 mM Tris-HCl, pH 7.5, 0.05% tween 20)) and overnight incubation (4 °C) with LOX2 (At3g45140) serum (Agrisera, AS07 258, 1:25,000 in blocking solution), the blot was washed with TBST and incubated (2 h, 25 °C) with horseradish peroxidase-coupled anti-rabbit IgG as second antibody (1:20,000 in blocking solution) for the subsequent luminescence detection of immunodecorated LOX on X-ray films (30 s incubation). […] The mixture was injected in 1.8 mL of 20 µM LeA (in 50 mM Tris-HCl, pH 7.2) and recorded for oxygen consumption.

As to `CCC=CCC1C(=O)C=CC1CCCCCCCC(=O)O` (stereo not drawn) [12-OPDA, cis-(+)-12-oxophytodienoic acid], the Inhibition of activity result (20 µM LeA) is given as “about 43%”. In addition, for the setting “control 4.6 ± 0.5”, the Oxygen consumption turned out to be 2.0 ± 0.5 nmol/mL/min.
